Experimental data reported in US20210214341A1, “SUBSTITUTED PYRIDINYL AZETIDINONE DERIVATIVES FOR USE IN TREATING CANCER AND OTHER DISEASES” (The Board of Regents of the University of Texas System, priority 2018, published 2021).
Where two headings read alike, the source gives them in different places.

Experiments:
HPAF-II = assay: Cytotoxicity IC50 in HPAF-II cells; format: cell-based; settings: Homo sapiens; HPAF-II cell line; read-out: IC50 (mean ± standard error)
Excerpt: (§1) B. Cytotoxicity Studies: Determination of IC50 Values (Single Run) in Capan-2, HPAC. HPAF-II, and HS766T Cell Lines
(§2) Capan-2, HPAC. HPAF-H, and HS766T. The compounds A, D, E, G, and H were chosen randomly, out of twelve β-laclam molecules, to carry out this evaluation.

HPAC = assay: Cytotoxicity IC50 in HPAC cells; format: cell-based; settings: Homo sapiens; HPAC cell line; read-out: IC50 (mean ± standard error)
Excerpt: as §1, §2

CaPan-2 = assay: Cytotoxicity IC50 in CaPan-2 cells; format: cell-based; settings: Homo sapiens; CaPan-2 cell line; read-out: IC50 (mean ± standard error)
Excerpt: as §1, §2

[1] = tested on: pancreatic cancer cells PANC-1 (ATCC CRL-1469); assay: SRB (Sulforhodamine B) assay in PANC-1 cells; format: cell-based; settings: Homo sapiens, PANC-1
Method: (§3) FIGS. 1A-1B show the IC50 curves of the twelve investigational β-lactams in pancreatic cancer cells PANC-1 (ATCC CRL-1469) and normal pancreatic ductal epithelial cells (ATCC CRL-4038). The GraphPad Prism software was used to process the results. The IC50 values were determined by SRB (Sulforhodamine B) assay following standard procedure. PANC-1 cells were plated in 96 well plates and treated with 1, 10, 100, 1000 and 10,000 nM of each of the drugs in triplicate for 72 hrs. Cells were fixed, washed and stained with SRB dye, the stained cells were washed, and the dye solubilized. It was read using a plate reader at 565 nm. The IC50 values were calculated assuming that the 10 μM sample has reached saturation. Following similar way, IC50 values were determined for normal pancreatic ductal epithelial cells.
(§4) As mentioned earlier, PANC-1 is referred to generically as the “gold standard of pancreatic cancers” representing as it does almost total resistance to GEM, the first line treatment currently used in clinical situations. Pancreatic cancer cells PANC-1 (ATCC CRL-1469) and normal pancreatic ductal epithelial cells (ATCC CRL-4038) were used in this study. The GraphPad Prism software was used to process the results. […] Cells were fixed, washed and stained with SRB dye, the stained cells were washed, and the dye solubilized. It was read using a plate reader at 565 nm. The IC50 values were calculated assuming that the 10 μM sample has reached saturation. Following similar way, IC50 values were determined for normal pancreatic ductal epithelial cells.

PANC-1 cells [2] = assay: Flow cytometric cell cycle analysis; format: cell-based, human; settings: tested for 24, 48 and 72 hrs
Method: The noise was cleared. […] After 72 hrs all the cells (including floaters) were collected, the adhered cells were trypsinized and collected as well. The cells were then centrifuged in a 50 mL centrifuge tube. The pellet was washed with PBS and reconstituted in 500 μL PBS. The cells were then fixed in ice cold ethanol by adding the ethanol dropwise while gently vortexing the cells. Stored at 4° C. for overnight. The cells were then centrifuged, and the pellet reconstituted in Guava cell cycle reagent and analyzed in a Guava flow cytometer. A similar experiment was conducted with normal pancreatic ductal epithelial cells (NPC) and the drug treatment was done according to the IC50 values observed in the 2D assay conducted on them (Table E). Please note that 2N represents G0/G1 and 4N for G2 phases.
After 72 hrs all the cells (including floaters) were collected, the adhered cells were trypsinized and collected as well. The cells were then centrifuged in a 50 mL centrifuge tube. The pellet was washed with PBS and reconstituted in 500 μL PBS. The cells were then fixed in ice cold ethanol by adding the ethanol dropwise while gently vortexing the cells. […] The cells were then centrifuged, and the pellet reconstituted in Guava cell cycle reagent and analyzed in a Guava flowcytometer. […] First set of data with PANC-1 cells were analyzed by using FlowJo software, the noise was cleared (FIG. 3). […]

PANC-1 tumorspheres = assay: 3D-tumorsphere formation assay; format: cell-based, human
Method: Number of tumorspheres formed can be used to distinguish the efficacy of different anticancer drugs in a more physically acceptable method than 2D culture. Based on selectivity and toxicity towards PANC-1 cells in comparison to normal pancreatic ductal epithelial cells (Table D), six compounds (A, B, C, E, F, and G) were chosen for the 3D-tumorsphere formation assay. The assay was carried out by following the protocol developed by Johnson et al., (2013). PANC-1 cells (5000) were plated as single cells in Corning ultra-low attachment 24 well plates in 0.5 ml DMEM+10% FBS. The cells were grown in a humidified atmosphere of 5% CO2 for 168 hrs. 0.1 ml Media was added on 72nd and 144 hrs. The β-lactams were dissolved in DMSO and maintained at −20° C. On the day of assay, on the addition of media, the drugs were freshly diluted in media. The final concentrations of drugs were 0, 1 nM, 10 nM, 100 nM, 1 uM, 10 μM. After 144 hours the total number tumorspheres that were larger than 100 micrometers were counted in a field of 1 mm×1 mm at 10× magnification in a bright field microscope. The data was plotted and the IC50 value was calculated.
3D-tumorsphere formation assay is considered to be a fast and economical intermediary step between in vitro and in vivo biological evaluations. A tumorsphere is a solid, spherical formation developed from the proliferation of a single cancer stem/progenitor cell in 3D culture. These cells are easily distinguishable from single or aggregated as they appear to become fused together and individual cells cannot be appearing to become fused together and individual cells cannot be identified. The size can vary from less than 50 micrometers to 250 micrometers. The number of tumorspheres formed can be used to characterize the cancer stem cell population within different in vitro cultured cancer cell lines. The number of tumorspheres formed can also be used to distinguish the efficacy of different anticancer drugs in a more physically acceptable method than 2D culture. Based on selectivity and toxicity towards PANC-1 cells in comparison to normal pancreatic ductal epithelial cells (Table D), six compounds (A, B, C, E, F, and G) were chosen for the 3D-tumorsphere formation assay. The assay was carried out by following the protocol developed by Johnson et al., (2013). […] The below steps were followed to accomplish the assay. • 5000 PANC-1 cells were plated as single cells in Corning ultra-low attachment 24 well plates in 0.5 ml DMEM+10% FBS. • Cells were grown in a humidified atmosphere of 5% CO2 for 168 hrs. 0.1 ml Media was added on 72nd and 144 hrs. • Drugs were dissolved in DMSO and maintained at −20° C. On the day of assay, on the addition of media, the drugs were freshly diluted in media. • The final concentrations of drugs were 0, 1 nM, 10 nM, 100 nM, 1 μM, 10 μM. • After 144 hrs the total number tunorspheres that were larger than 100 micrometers were counted in a field of 1 mm×1 mm at 10× magnification in a bright field microscope. The data was plotted and the IC50 value was calculated.

HS 766T = assay: Cytotoxicity IC50 in HS 766T cells; format: cell-based; settings: Homo sapiens, Hs766T; HS 766T cell line; read-out: IC50 (mean ± standard error)
Excerpt: as §1, §2

[3] = tested on: normal pancreatic ductal epithelial cells (ATCC CRL-4038); assay: SRB (Sulforhodamine B) assay in normal pancreatic ductal epithelial cells; format: cell-based; settings: Epithelial cell; 2D-culture, SRB, average of 3 runs; read-out: IC50 (NPC)
Method: as §3, §4

[4] = tested on: Phospho-Histone H2A.X (Ser139) in PANC-1 cells; assay: ICC-IF with Phospho-Histone H2A.X (Ser139) (γ-H2AX staining); format: cell-based, human; settings: 1 μM, compared to control
Excerpt: This immunocytochemistry-immunofluorescence (ICC-IF) with Phospho-Histone H2A.X (Ser139) assay enables the quantitative detection of the histone variant H2AX, phosphorylated on serine 139. This modification serves as a sensitive biomarker for the detection of such breaks, localizing the site of DNA repair. Gamma-H2AX triggers cell cycle arrest and DNA damage response repair, and this assay is used to study genome stability, the cell cycle, DNA repair, and it serves as a biomarker for cancer and offers enhanced convenience over other immunoassay technologies. The PANC-1 cells were grown, treated with 1 μM concentration of the compound “D”, fixed and strained directly in chamber slides. Cells were submerged with blocking buffer for 60 min and then incubated with primary antibody Phospho-Histone H2A.X (Ser139) for overnight at 4° C. Then the cells were rinsed for three times in 1×PBS for 5 min each. The specimen was incubated in fluorochrome-conjugated secondary antibody diluted in antibody dilution buffer for 1-2 h at room temperature in the dark and then rinsed for three times in 1×PBS for 5 min each. […]
This assay was also performed with the compound D, prior to the determination of IC50 values in normal pancreatic ductal epithelial cell lines. This assay enables the quantitative detection of the histone variant H2AX, phosphorylated on serine 139. […]

PANC-1 cells [5] = assay: Annexin V assay to determine apoptosis; format: cell-based, human; settings: 0.5, 1, and 2 μM, 16 hrs
Method: Cell death was identified as apoptosis through Annexin V assay. For this study, PANC-1, the most commonly known drug-resistance pancreatic cancer cell line was used. […] Error bars show standard deviation (n=3). For optimal throughput, final cell concentrations were maintained between 2×10^4 and 1×10^5 cells/well (or 1×10^5 to 5×10^5 cells/mL). Doxorubicin was used as control at a concentration of 5 μM for 16 hrs. For this study, PANC-1, the most commonly known drug-resistance pancreatic cancer cell lines were used. […] Error bars show standard deviation (n=3). For optimal throughput, final cell concentrations were maintained between 2×10^4 and 1×10^5 cells/well (or 1×10^5 to 5×10^5 cells/mL). Doxorubicin was used as a control at a concentration of 5 uM for 16 hrs (FIG. 5). Apoptosis was identified as the mechanism of cell death.

PANC-1 cells [6] = assay: BrdU incorporation immunostaining; format: cell-based, human; settings: compared to control
Method: BrdU (5-bromo-2′-deoxyuridine) incorporation to proceed with immunostaining coverslip slides with Prolong® Gold Antifade reagent were visualized under microscope. Alexa Fluor® 488 (green) was used for BrdU staining along with nuclear marker DAPI (blue). BrdU images were co-localized with nuclear marker DAPI blue.
Diluted BrdU in fresh, pre-warmed growth medium to a final concentration of 0.03 mg/mL. This mixture was added to cells and incubated at 37° C. for 30 min. The medium was aspirated; cells were completely covered with 70% ethanol for 5 min. The fixative was aspirated and the cells were rinsed three times in 1×PBS for 5 min each. Therefore, 1.5 mL HCl and incubated for 30 min at room temperature. Then the HCl was aspirated and rinsed to times in 1×PBS for 5 min each. Subsequent proceeding for immunostaining followed the below steps: The cells were submerged with blocking buffer for 60 min and subsequently incubated with primary antibody (BrdU Mouse mAb) for overnight at 4° C. Therefore, the cells were rinsed three times in 1×PBS for 5 min each and incubated in fluorochrome-conjugated secondary antibody diluted in antibody dilution buffer for 1-2 h at room temperature in the dark and then rinsed for three times in 1×PBS for 5 min each. Coverslip slides with Prolong® Gold Antifade reagem were visualized under microscope. […]

[7] = tested on: drug-resistant pancreatic cancer cell lines; assay: IC50 against drug-resistant pancreatic cancer cell lines; format: cell-based; settings: Homo sapiens, range over cell lines
[8] = 2D-culture, SRB, 72 hrs, average of 3 runs, read-out: IC50 (PANC-1)

IC50 ([1]; in vitro, triplicate, read-out: PANC-1 cell lines IC50)	IC50 [7]	SMILES	IC50 (HPAF-II)	IC50 (HPAC)	IC50 (CaPan-2)	IC50 [1, 8]	time of maximum cell cycle blockage (PANC-1 cells [2])	activity in 3D-tumorsphere formation assay compared with 2D-culture (PANC-1 tumorspheres)	IC50 (PANC-1 tumorspheres; Homo sapiens, tumorspheres larger than 100 micrometers counted after 144 hrs)	IC50 (HS 766T)	IC50 [3]	γ-H2AX (phospho-H2AX) staining [4]	mechanism of cell death (PANC-1 cells [5])	rate of DNA replication and subsequent cell proliferation (BrdU incorporation) (PANC-1 cells [6])
–	–	CS(=O)(=O)O[C@@H]1C(=O)N(c2cc3c4ccccc4ccc3c3ccccc23)[C@H]1c1ccc(F)cn1 (racemic) [A, (±)-Trans-N-(chrysen-6-yl)-2-(5-fluoropyridin-2-yl)-4-oxoazetidin-3-yl methanesulfonate]	980 ± 380 nM	> 10000 nM	> 10000 nM	21.2 nM	72 h	higher activity in 3D-tumorphere formation assay than 2D-culture	18.1 nM	240 ± 380 nM	449 nM	–	–	–
–	–	O=C1[C@@H](OS(=O)(=O)C2CCC2)[C@H](c2ccc(F)cn2)N1c1cc2c3ccccc3ccc2c2ccccc12 (racemic) [D, (±)-Trans-N-(chrysen-6-yl)-2-(5-fluoropyridin-2-yl)-4-oxoazetidin-3-yl cyclobutanesulfonate]	1390 ± 400 nM	–	–	118 nM	–	–	–	730 ± 400 nM	60.8 nM	positive staining	Apoptosis	significantly low
37900 nM	≥ 16000 nM	Nc1ccn([C@@H]2O[C@H](CO)[C@@H](O)C2(F)F)c(=O)n1 [Gemcitabine, reference compound]	> 50000 nM	> 50000 nM	> 50000 nM	37900 nM	–	–	–	16300 ± 600 nM	–	–	–	–
